From patent US10730872B2, “Pesticidally active heterocyclic derivatives with sulphur containing sustitutents” (SYNGENTA PARTICIPATIONS AG, priority 2015, dated 2020)

Columns and labels:
Format in all cases: in vivo
[1] = tested on: Spodoptera littoralis; experiment: Spodoptera littoralis (Egyptian Cotton Leaf Worm), sprayed cotton leaf discs; details: foliar, 72 h, application rate of 200 ppm, L1 larvae, 3 days after infestation
Method: Cotton leaf discs were placed onto agar in 24-well microtiter plates and sprayed with aqueous test solutions prepared from 10,000 ppm DMSO stock solutions. After drying the leaf discs were infested with five L1 larvae. The samples were assessed for mortality, anti-feeding effect, and growth inhibition in comparison to untreated samples 3 days after infestation. Control of Spodoptera littoralis by a test sample is given when at least one of the categories mortality, anti-feedant effect, and growth inhibition is higher than the untreated sample.

[2] = tested on: Plutella xylostella; experiment: Plutella xylostella (Diamond Back Moth); details: 120 h, application rate of 200 ppm, artificial diet, L2 larvae, 5 days after infestation, read-out: effect in at least one of the two categories (mortality or growth inhibition)
Method: (§1) 24-well microtiter plates with artificial diet were treated with aqueous test solutions prepared from 10,000 ppm DMSO stock solutions by pipetting. After drying, the plates were infested with L2 larvae (10 to 15 per well). The samples were assessed for mortality and growth inhibition in comparison to untreated samples 5 days after infestation.

[3] = tested on: Spodoptera littoralis; experiment: Spodoptera littoralis (Egyptian Cotton Leaf Worm), uptake by lettuce roots from agar; details: 144 h, test rate of 12.5 ppm, mixed with agar, absorbed by lettuce roots, Spodoptera eggs, 6 days after infestation, read-out: effect in at least one of the three categories (mortality, anti-feeding, or growth inhibition)
From the text: Test compounds were applied by pipette from 10,000 ppm DMSO stock solutions into 24-well plates and mixed with agar. Lettuce seeds were placed onto the agar and the multi well plate was closed by another plate which contained also agar. After 7 days the compound was absorbed by the roots and the lettuce grew into the lid plate. The lettuce leaves were then cut off into the lid plate. Spodoptera eggs were pipetted through a plastic stencil onto a humid gel blotting paper and the lid plate was closed with it. The samples were assessed for mortality, anti-feedant effect and growth inhibition in comparison to untreated samples 6 days after infestation.

[4] = tested on: Euschistus heros; experiment: Euschistus heros (Neotropical Brown Stink Bug); details: 120 h, application rate of 200 ppm, sprayed soybean leaves, N2 nymphs, 5 days after infestation, read-out: effect in at least one of the two categories (mortality or growth inhibition)
Method: Soybean leaves on agar in 24-well microtiter plates were sprayed with aqueous test solutions prepared from 10,000 ppm DMSO stock solutions. After drying the leaves were infested with N2 nymphs. The samples were assessed for mortality and growth inhibition in comparison to untreated samples 5 days after infestation.

[5] = tested on: Diabrotica balteata; experiment: Diabrotica balteata (Corn Root Worm); details: 96 h, application rate of 200 ppm, sprayed maize sprouts, L2 larvae, 4 days after infestation, read-out: effect in at least one of the two categories (mortality or growth inhibition)
Method: as §1, with “Maize sprouts placed onto an agar layer in 24-well” for “24-well”, “plates” for “plates with artificial diet”, “spraying.” for “pipetting.”, “(6” for “(10”, “10” for “15”, “4” for “5”

[6] = tested on: Myzus persicae; experiment: Myzus persicae (Green Peach Aphid). Systemic Activity; details: 144 h, test rate of 24 ppm, roots of infested pea seedlings in test solution, 6 days
Method: Roots of pea seedlings infested with an aphid population of mixed ages were placed directly into aqueous test solutions prepared from 10,000 DMSO stock solutions. The samples were assessed for mortality 6 days after placing seedlings into test solutions.

[7] = tested on: Myzus persicae; experiment: Myzus persicae (Green Peach Aphid): Feeding/Contact Activity; details: foliar, 144 h, application rate of 200 ppm, sprayed sunflower leaf discs, aphid population of mixed ages, 6 days after infestation
Method: Sunflower leaf discs were placed onto agar in a 24-well microtiter plate and sprayed with aqueous test solutions prepared from 10,000 ppm DMSO stock solutions. After drying, the leaf discs were infested with an aphid population of mixed ages. The samples were assessed for mortality 6 days after infestation.

[8] = tested on: Bemisia tabaci; experiment: Bemisia tabaci (Cotton White Fly): Feeding/Contact Activity; details: foliar, 144 h, application rate of 200 ppm, sprayed cotton leaf discs, adult white flies, 6 days after incubation
Method: Cotton leaf discs were placed on agar in 24-well microtiter plates and sprayed with aqueous test solutions prepared from 10,000 ppm DMSO stock solutions. After drying the leaf discs were infested with adult white flies. The samples were checked for mortality 6 days after incubation.

CCn1c(C(F)(F)F)cc2nc(-c3ncc(N/C=N/OC)cc3S(=O)(=O)CC)n(C)c2c1=O [Compound A26, N-[6-[5-ethyl-3-methyl-4-oxo-6-(trifluoromethyl)imidazo[4,5-c]pyridin-2-yl]-5-ethylsulfonyl-3-pyridyl]-N′-methoxy-formamidine]
≥ 80%: percent control (mortality, anti-feeding effect or growth inhibition) at 200 ppm [1] | percent effect (mortality or growth inhibition) at 200 ppm [2] | percent effect (mortality, anti-feeding or growth inhibition) at 12.5 ppm [3] | percent effect (mortality or growth inhibition) at 200 ppm [4] | effect mortality or growth inhibition at 200 ppm [5]

CCS(=O)(=O)c1ccc(NC)nc1-c1nc2cc(C(F)(F)F)n(C3CC3)c(=O)c2n1C [Compound A51, 5-cyclopropyl-2-[3-ethylsulfonyl-6-(methylamino)-2-pyridyl]-3-methyl-6-(trifluoromethyl)imidazo[4,5-c]pyridin-4-one]
≥ 80%: mortality at 24 ppm [6] | mortality at 200 ppm [7] | percent control (mortality, anti-feeding effect or growth inhibition) at 200 ppm [1] | percent effect (mortality or growth inhibition) at 200 ppm [2] | percent effect (mortality, anti-feeding or growth inhibition) at 12.5 ppm [3] | mortality at 200 ppm [8] | percent effect (mortality or growth inhibition) at 200 ppm [4] | effect mortality or growth inhibition at 200 ppm [5]

CCn1c(C(F)(F)F)cc2nc(-c3nc(N(C(=O)C4CC4)C(=O)C4CC4)c(Cl)cc3S(=O)(=O)CC)n(C)c2c1=O [Compound A40, N-[3-chloro-6-[5-ethyl-3-methyl-4-oxo-6-(trifluoromethyl)imidazo[4,5-c]pyridin-2-yl]-5-ethylsulfonyl-2-pyridyl]-N-(cyclopropanecarbonyl)cyclopropanecarboxamide]
≥ 80%: mortality at 200 ppm [7] | percent control (mortality, anti-feeding effect or growth inhibition) at 200 ppm [1] | percent effect (mortality or growth inhibition) at 200 ppm [2] | percent effect (mortality, anti-feeding or growth inhibition) at 12.5 ppm [3] | mortality at 200 ppm [8] | percent effect (mortality or growth inhibition) at 200 ppm [4] | effect mortality or growth inhibition at 200 ppm [5]

CCn1c(C(F)(F)F)cc2nc(-c3nc(Cl)c(N)cc3S(=O)(=O)CC)n(C)c2c1=O [Compound A53, 2-(5-amino-6-chloro-3-ethylsulfonyl-2-pyridyl)-5-ethyl-3-methyl-6-(trifluoromethyl)imidazo[4,5-c]pyridin-4-one]
≥ 80%: mortality at 200 ppm [7] | percent control (mortality, anti-feeding effect or growth inhibition) at 200 ppm [1] | percent effect (mortality or growth inhibition) at 200 ppm [2] | percent effect (mortality, anti-feeding or growth inhibition) at 12.5 ppm [3] | effect mortality or growth inhibition at 200 ppm [5]

CCn1c(C(F)(F)F)cc2nc(-c3nc(NC4CC4)c(Cl)cc3S(=O)(=O)CC)n(C)c2c1=O [Compound A31, 2-[5-chloro-6-(cyclopropylamino)-3-ethylsulfonyl-2-pyridyl]-5-ethyl-3-methyl-6-(trifluoromethyl)imidazo[4,5-c]pyridin-4-one]
≥ 80%: percent control (mortality, anti-feeding effect or growth inhibition) at 200 ppm [1] | percent effect (mortality or growth inhibition) at 200 ppm [2] | percent effect (mortality, anti-feeding or growth inhibition) at 12.5 ppm [3] | mortality at 200 ppm [8] | percent effect (mortality or growth inhibition) at 200 ppm [4] | effect mortality or growth inhibition at 200 ppm [5]

CCn1c(C(F)(F)F)cc2nc(-c3ncc(NC(=O)C4CC4)cc3S(=O)(=O)CC)n(C)c2c1=O [Compound A7, N-[6-[5-ethyl-3-methyl-4-oxo-6-(trifluoromethyl)imidazo[4,5-c]pyridin-2-yl]-5-ethylsulfonyl-3-pyridyl]cyclopropanecarboxamide]
≥ 80%: mortality at 24 ppm [6] | mortality at 200 ppm [7] | percent control (mortality, anti-feeding effect or growth inhibition) at 200 ppm [1] | percent effect (mortality or growth inhibition) at 200 ppm [2] | mortality at 200 ppm [8] | percent effect (mortality or growth inhibition) at 200 ppm [4]

CCn1c(C(F)(F)F)cc2nc(-c3ncc(N(C)C(=O)C4CC4)cc3S(=O)(=O)CC)n(C)c2c1=O [Compound A9, N-[6-[5-ethyl-3-methyl-4-oxo-6-(trifluoromethyl)imidazo[4,5-c]pyridin-2-yl]-5-ethylsulfonyl-3-pyridyl]-N-methyl-cyclopropanecarboxamide]
≥ 80%: mortality at 24 ppm [6] | mortality at 200 ppm [7] | percent control (mortality, anti-feeding effect or growth inhibition) at 200 ppm [1] | percent effect (mortality or growth inhibition) at 200 ppm [2] | percent effect (mortality, anti-feeding or growth inhibition) at 12.5 ppm [3] | mortality at 200 ppm [8] | percent effect (mortality or growth inhibition) at 200 ppm [4]

CCS(=O)(=O)c1ccc(NN)nc1-c1nc2cc(C(F)(F)F)n(C3CC3)c(=O)c2n1C [Compound A45, 5-cyclopropyl-2-(3-ethylsulfonyl-6-hydrazino-2-pyridyl)-3-methyl-6-(trifluoromethyl)imidazo[4,5-c]pyridin-4-one]
≥ 80%: mortality at 24 ppm [6] | mortality at 200 ppm [7] | percent control (mortality, anti-feeding effect or growth inhibition) at 200 ppm [1] | percent effect (mortality or growth inhibition) at 200 ppm [2] | percent effect (mortality, anti-feeding or growth inhibition) at 12.5 ppm [3] | effect mortality or growth inhibition at 200 ppm [5]

CCn1c(C(F)(F)F)cc2nc(-c3nc(NC(=O)C4CC4)c(Cl)cc3S(=O)(=O)CC)n(C)c2c1=O [Compound A41, N-[3-chloro-6-[5-ethyl-3-methyl-4-oxo-6-(trifluoromethyl)imidazo[4,5-c]pyridin-2-yl]-5-ethylsulfonyl-2-pyridyl]cyclopropanecarboxamide]
≥ 80%: mortality at 200 ppm [7] | percent control (mortality, anti-feeding effect or growth inhibition) at 200 ppm [1] | percent effect (mortality or growth inhibition) at 200 ppm [2] | percent effect (mortality, anti-feeding or growth inhibition) at 12.5 ppm [3] | percent effect (mortality or growth inhibition) at 200 ppm [4] | effect mortality or growth inhibition at 200 ppm [5]

CCS(=O)(=O)c1ccc(NO)nc1-c1nc2cc(C(F)(F)F)n(C3CC3)c(=O)c2n1C [Compound A47, 5-cyclopropyl-2-[3-ethylsulfonyl-6-(hydroxyamino)-2-pyridyl]-3-methyl-6-(trifluoromethyl)imidazo[4,5-c]pyridin-4-one]
≥ 80%: mortality at 24 ppm [6] | mortality at 200 ppm [7] | percent control (mortality, anti-feeding effect or growth inhibition) at 200 ppm [1] | percent effect (mortality or growth inhibition) at 200 ppm [2] | mortality at 200 ppm [8] | percent effect (mortality or growth inhibition) at 200 ppm [4] | effect mortality or growth inhibition at 200 ppm [5]

CCn1c(C(F)(F)F)cc2nc(-c3nc(C(=O)NC4CC4)ccc3S(=O)(=O)CC)n(C)c2c1=O [Compound A20, N-cyclopropyl-6-[5-ethyl-3-methyl-4-oxo-6-(trifluoromethyl)imidazo[4,5-c]pyridin-2-yl]-5-ethylsulfonyl-pyridine-2-carboxamide]
≥ 80%: mortality at 24 ppm [6] | mortality at 200 ppm [7] | percent control (mortality, anti-feeding effect or growth inhibition) at 200 ppm [1] | percent effect (mortality or growth inhibition) at 200 ppm [2] | percent effect (mortality, anti-feeding or growth inhibition) at 12.5 ppm [3] | mortality at 200 ppm [8] | percent effect (mortality or growth inhibition) at 200 ppm [4]

CCn1c(C(F)(F)F)cc2nc(-c3ncc(N(C)N)cc3S(=O)(=O)CC)n(C)c2c1=O [Compound A56, 2-[5-[amino(methyl)amino]-3-ethylsulfonyl-2-pyridyl]-5-ethyl-3-methyl-6-(trifluoromethyl)imidazo[4,5-c]pyridin-4-one]
≥ 80%: mortality at 200 ppm [7] | percent control (mortality, anti-feeding effect or growth inhibition) at 200 ppm [1] | percent effect (mortality or growth inhibition) at 200 ppm [2] | percent effect (mortality, anti-feeding or growth inhibition) at 12.5 ppm [3] | percent effect (mortality or growth inhibition) at 200 ppm [4] | effect mortality or growth inhibition at 200 ppm [5]
